In patent US6926763B2, “Purine and isosteric antibacterial compounds” (GLSynthesis, Inc., priority 2002, dated 2005):
In brackets after ≈: the same amount, converted by molar mass. Where two headings read alike, the source gives them in different places.

How the values were obtained:
[1] = system: Bacillus subtilis; experiment: Inhibition of bacterial growth (agar plate MIC), B.s.; assay type: cell-based; conditions: agar plates, 37° C., 24 hours; for MIC: Bacillus subtilis
Description: (§1) Antimicrobial efficacy may be determined by standard methods of microbial culture in growth medium or on plates of agar supplemented with appropriate growth media. For example, microbes, e.g., mycoplasmata or Gram-positive or Gram-negative bacteria, are grown in the presence of serial dilutions of compounds in an appropriate vehicle, and, after a suitable period of growth, the microbial density is measured by visual or instrumental means. The concentration of compound at which no growth occurs is the minimum inhibitory concentration (MIC) of the compound. Test compounds with an appropriate level of growth inhibition are good candidate therapeutics for further evaluation.
(§2) Each compound was assayed against a panel of Gram-positive Bacilli, Enterococci, and Staphylococci, and Gram-negative Escherichia coli, grown in appropriate plate media solidified with 1.3% agar-agar. […] One tenth mL of diluted bacteria containing 500-1000 colony-forming units (CFU) were plated and spread, and the plates were incubated at 37° C. for 24 hours. MIC (minimum inhibitory concentration) was equivalent to the lowest concentration at which growth, i.e. colony formation, was not observed.

[2] = molecular target: E.c. pol IIIE (Escherichia coli, UniProt P10443); experiment: biochemical
Sequence of E.c. pol IIIE (P10443 whole entry): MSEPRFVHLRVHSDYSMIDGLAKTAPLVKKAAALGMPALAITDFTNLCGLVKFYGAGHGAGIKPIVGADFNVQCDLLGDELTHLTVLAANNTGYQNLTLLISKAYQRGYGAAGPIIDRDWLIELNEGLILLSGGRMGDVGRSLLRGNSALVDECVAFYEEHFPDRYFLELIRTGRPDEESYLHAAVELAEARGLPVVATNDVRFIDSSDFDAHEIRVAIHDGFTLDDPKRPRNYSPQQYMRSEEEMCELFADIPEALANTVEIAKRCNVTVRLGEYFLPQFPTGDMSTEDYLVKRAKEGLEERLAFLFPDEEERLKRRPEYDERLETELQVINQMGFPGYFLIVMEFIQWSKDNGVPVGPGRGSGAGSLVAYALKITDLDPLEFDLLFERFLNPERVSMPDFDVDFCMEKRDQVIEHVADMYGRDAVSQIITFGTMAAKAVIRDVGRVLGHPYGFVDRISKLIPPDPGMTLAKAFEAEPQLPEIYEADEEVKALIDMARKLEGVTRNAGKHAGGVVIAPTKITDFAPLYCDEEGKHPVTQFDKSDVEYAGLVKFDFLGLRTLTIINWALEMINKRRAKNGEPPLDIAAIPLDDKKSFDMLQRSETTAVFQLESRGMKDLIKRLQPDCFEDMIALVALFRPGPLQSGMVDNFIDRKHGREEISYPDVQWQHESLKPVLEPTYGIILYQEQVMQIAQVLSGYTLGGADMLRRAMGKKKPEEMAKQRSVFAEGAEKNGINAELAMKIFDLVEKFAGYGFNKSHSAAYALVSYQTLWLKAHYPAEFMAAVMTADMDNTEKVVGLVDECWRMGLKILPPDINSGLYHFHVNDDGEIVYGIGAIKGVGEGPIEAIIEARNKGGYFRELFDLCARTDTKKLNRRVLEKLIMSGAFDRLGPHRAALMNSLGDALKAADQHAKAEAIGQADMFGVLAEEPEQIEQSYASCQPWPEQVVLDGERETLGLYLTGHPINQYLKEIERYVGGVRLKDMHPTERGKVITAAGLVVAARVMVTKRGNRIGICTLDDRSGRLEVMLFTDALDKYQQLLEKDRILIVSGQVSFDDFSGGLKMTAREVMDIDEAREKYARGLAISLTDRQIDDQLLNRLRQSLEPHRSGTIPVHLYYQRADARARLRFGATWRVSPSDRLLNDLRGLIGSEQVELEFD
Description: (§3) The ability of a test compound to inhibit the activity of DNA pol IIIC or pol IIIE enzymes can be tested by using a DNA polymerase assay as described, for example, in Barnes and Brown, Nucl. […] This rapid screening method can use natural or recombinant DNA pol III enzymes in a standard DNA polymerase activity assay. By including a test compound in a side-by-side assay with a control, the effect of the test compound on polymerase activity can be assessed.
(§4) DNA pol III activity was assayed as described in Barnes et al., Nucl.
(§5) Purified pol IIIC or pol IIIE was added to a buffered solution containing Mg^2+, DTT, glycerol, nicked calf thymus DNA, saturating concentrations of dATP, dCTP, dTTP and [^3H]-dTTP. Reaction mixtures were incubated at 30° C. for 10 min, quenched and filtered, and radioactivity in the acid-insoluble material measured by scintillation counting. Experiments were done in triplicate. Inhibitors were assayed by addition of several dilutions of a stock solution of inhibitor (DMSO or water, depending on solubility) before enzyme addition. […] The truncated assay, i.e., exclusion of the competitive substrate dGTP allows for the direct determination of apparent inhibitor constants (Ki) in this assay system.

[3] = system: MRSA (B42876); experiment: Inhibition of bacterial growth (agar plate MIC), MRSA (B42876); assay type: cell-based, methicillin-resistant S.a.; conditions: agar plates, 37° C., 24 hours; for MIC: Staphylococcus aureus, MRSA
Description: as §1, §2

[4] = system: vancomycin-resistant E. fecium; experiment: Inhibition of bacterial growth (agar plate MIC), VRE; assay type: cell-based, Enterococcus fecium; conditions: agar plates, 37° C., 24 hours
Description: as §1, §2

[5] = system: Staphylococcus aureus; experiment: Inhibition of bacterial growth (agar plate MIC), S.a.; assay type: cell-based; conditions: agar plates, 37° C., 24 hours; for MIC: Staphylococcus aureus
Description: as §1, §2

[6] = system: Enterococcus fecalis; experiment: Inhibition of bacterial growth (agar plate MIC), E. fecalis; assay type: cell-based; conditions: agar plates, 37° C., 24 hours; for MIC: Enterococcus
Description: as §1, §2

[7] = molecular target: B.s. pol IIIE (Bacillus subtilis, UniProt O34623); experiment: biochemical; assay type: biochemical
Sequence of B.s. pol IIIE (O34623 whole entry): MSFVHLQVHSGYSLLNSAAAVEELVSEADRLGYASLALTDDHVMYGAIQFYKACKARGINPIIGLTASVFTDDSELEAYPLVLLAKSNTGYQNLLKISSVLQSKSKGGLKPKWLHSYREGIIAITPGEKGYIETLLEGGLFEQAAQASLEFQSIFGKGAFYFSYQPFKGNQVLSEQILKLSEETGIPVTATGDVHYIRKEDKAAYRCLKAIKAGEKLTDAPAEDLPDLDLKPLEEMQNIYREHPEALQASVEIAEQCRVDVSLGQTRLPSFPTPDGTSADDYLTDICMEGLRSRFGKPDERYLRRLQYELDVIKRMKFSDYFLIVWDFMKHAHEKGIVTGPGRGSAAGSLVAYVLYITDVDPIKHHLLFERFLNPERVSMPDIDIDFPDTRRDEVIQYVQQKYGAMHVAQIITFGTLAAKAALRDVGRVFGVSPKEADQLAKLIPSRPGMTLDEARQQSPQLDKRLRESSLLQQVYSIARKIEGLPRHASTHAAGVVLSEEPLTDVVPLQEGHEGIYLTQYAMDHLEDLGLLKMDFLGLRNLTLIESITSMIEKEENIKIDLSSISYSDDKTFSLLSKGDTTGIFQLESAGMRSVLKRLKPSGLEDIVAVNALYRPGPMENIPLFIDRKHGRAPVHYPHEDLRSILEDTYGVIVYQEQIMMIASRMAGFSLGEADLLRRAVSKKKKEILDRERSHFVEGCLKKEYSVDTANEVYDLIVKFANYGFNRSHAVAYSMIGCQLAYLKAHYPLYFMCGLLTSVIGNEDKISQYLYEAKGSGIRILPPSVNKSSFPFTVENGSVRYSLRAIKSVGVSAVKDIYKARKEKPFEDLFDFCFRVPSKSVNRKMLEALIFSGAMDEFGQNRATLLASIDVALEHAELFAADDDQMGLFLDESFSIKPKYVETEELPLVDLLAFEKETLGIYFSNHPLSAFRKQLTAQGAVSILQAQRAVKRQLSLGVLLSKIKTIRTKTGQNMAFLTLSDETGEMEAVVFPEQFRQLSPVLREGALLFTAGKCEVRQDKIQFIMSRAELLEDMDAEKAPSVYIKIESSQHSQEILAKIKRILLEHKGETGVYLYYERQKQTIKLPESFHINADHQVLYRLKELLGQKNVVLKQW
Description: as §3, §4, §5

[8] = molecular target: B.s. pol IIIC (Bacillus subtilis, UniProt P13267); experiment: biochemical; assay type: biochemical
Sequence of B.s. pol IIIC (P13267 whole entry): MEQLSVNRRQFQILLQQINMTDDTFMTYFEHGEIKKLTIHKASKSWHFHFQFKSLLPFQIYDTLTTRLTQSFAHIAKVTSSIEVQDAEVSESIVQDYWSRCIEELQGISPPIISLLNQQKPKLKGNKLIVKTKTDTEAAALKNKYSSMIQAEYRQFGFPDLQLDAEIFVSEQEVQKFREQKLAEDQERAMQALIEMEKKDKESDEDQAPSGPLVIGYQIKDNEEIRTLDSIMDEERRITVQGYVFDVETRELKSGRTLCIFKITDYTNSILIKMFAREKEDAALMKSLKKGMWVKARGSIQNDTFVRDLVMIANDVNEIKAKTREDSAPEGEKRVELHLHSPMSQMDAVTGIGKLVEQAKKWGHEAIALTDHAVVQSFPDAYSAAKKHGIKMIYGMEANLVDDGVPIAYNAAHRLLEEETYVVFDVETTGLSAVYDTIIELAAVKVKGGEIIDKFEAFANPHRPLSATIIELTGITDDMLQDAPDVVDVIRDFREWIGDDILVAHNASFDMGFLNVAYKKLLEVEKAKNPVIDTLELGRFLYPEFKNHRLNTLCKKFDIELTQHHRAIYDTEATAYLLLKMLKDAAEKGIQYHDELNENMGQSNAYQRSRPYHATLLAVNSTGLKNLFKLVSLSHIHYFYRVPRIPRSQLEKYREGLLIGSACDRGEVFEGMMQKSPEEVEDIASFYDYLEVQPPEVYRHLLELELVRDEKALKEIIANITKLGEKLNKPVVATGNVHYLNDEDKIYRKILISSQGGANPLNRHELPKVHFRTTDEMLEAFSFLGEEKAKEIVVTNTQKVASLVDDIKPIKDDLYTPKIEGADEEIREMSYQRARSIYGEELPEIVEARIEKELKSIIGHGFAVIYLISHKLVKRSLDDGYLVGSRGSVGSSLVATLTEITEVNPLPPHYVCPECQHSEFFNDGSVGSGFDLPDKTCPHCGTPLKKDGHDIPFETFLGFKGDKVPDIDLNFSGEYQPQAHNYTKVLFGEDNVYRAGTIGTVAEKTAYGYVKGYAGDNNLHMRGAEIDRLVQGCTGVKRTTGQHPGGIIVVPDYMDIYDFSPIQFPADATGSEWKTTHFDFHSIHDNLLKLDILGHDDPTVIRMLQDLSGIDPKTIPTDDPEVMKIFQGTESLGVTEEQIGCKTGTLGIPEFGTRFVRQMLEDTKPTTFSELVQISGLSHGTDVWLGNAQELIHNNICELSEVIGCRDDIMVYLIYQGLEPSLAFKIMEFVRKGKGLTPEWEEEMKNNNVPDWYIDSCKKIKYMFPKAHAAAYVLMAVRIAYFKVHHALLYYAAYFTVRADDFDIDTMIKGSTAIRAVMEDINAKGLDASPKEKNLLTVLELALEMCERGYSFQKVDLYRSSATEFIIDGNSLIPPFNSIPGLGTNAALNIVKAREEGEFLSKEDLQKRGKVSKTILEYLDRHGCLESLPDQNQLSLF
Description: as §3, §4, §5

[9] = system: S.a. (Smith); experiment: Inhibition of bacterial growth (agar plate MIC), S.a. (Smith); assay type: cell-based, Staphylococcus aureus; conditions: agar plates, 37° C., 24 hours; for MIC: Staphylococcus aureus
Description: as §1, §2

[10] = system: Enterococcus fecium; experiment: Inhibition of bacterial growth (agar plate MIC), E. fecium; assay type: cell-based; conditions: agar plates, 37° C., 24 hours; for MIC: Enterococcus
Description: as §1, §2

[11] = in vitro; assay type: in vitro ADME; conditions: human, Caco-2
From the text: Table 2 summarizes the results of cell membrane permeability assays of representative compounds of the invention. The assay utilizes CaCo2 cell culture monolayers, described by Artursson and Kalsson, Biochem. Biophys. Res.

[12] = truncated assay without dGTP, apparent Ki, read-out: Ki, B.s. pol IIIE
[13] = truncated assay without dGTP, apparent Ki, read-out: Ki, B.s. pol IIIC
[14] = truncated assay without dGTP, apparent Ki

Structure (SMILES): O=c1[nH]c(NCc2ccc(Cl)c(Cl)c2)cc2[nH]cnc12 [Compound 1, 2-(3,4-Dichlorobenzylamino)-6-oxo-3-deazapurine]
- MIC, B.s. [1]: 40 µg/mL (≈ 129 µM)
- Ki ([2]; truncated assay without dGTP, apparent Ki, read-out: Ki, E.c. pol IIIE): 176000 nM
- MIC, MRSA (B42876) [3]: 80 µg/mL (≈ 259 µM)
- MIC, VRE [4]: 40 µg/mL (≈ 129 µM)
- MIC, S.a. [5]: 80 µg/mL (≈ 259 µM)
- MIC, E. fecalis [6]: 80 µg/mL (≈ 259 µM)
- Ki [7, 12]: 2500 nM
- Ki [8, 13]: 2200 nM
- MIC, S.a. (Smith) [9]: 80 µg/mL (≈ 259 µM)
- MIC, E. fecium [10]: 40 µg/mL (≈ 129 µM)

Structure (SMILES): COCCCCn1cnc2cc(NCc3ccc(Cl)c(Cl)c3)[nH]c(=O)c21 [Compound 2, 2-(3,4-Dichlorobenzylamino)-6-oxo-7-(4-methoxybutyl)-3-deazapurine]
- MIC [1]: 0.625 µg/mL (≈ 1.58 µM)
- Ki [2]: 56000 nM
- MIC [6]: 5 µg/mL (≈ 12.6 µM)
- Ki [7]: 370 nM
- Ki [8]: 190 nM
- MIC [9]: 3.75 µg/mL (≈ 9.49 µM)
- MIC [10]: 5 µg/mL (≈ 12.6 µM)

Structure (SMILES): O=c1[nH]c(NCc2ccc(Cl)c(Cl)c2)cc2ncn(CCCCN3CCOCC3)c12 [Compound 4, 2-(3,4-Dichlorobenzylamino)-6-oxo-7-(4-morpholinylbutyl)-3-deazapurine]
- MIC, B.s. [1]: 7.5 µg/mL (≈ 16.7 µM)
- MIC, MRSA (B42876) [3]: 20 µg/mL (≈ 44.4 µM)
- MIC, VRE [4]: 10 µg/mL (≈ 22.2 µM)
- MIC, S.a. [5]: 20 µg/mL (≈ 44.4 µM)
- MIC, E. fecalis [6]: 20 µg/mL (≈ 44.4 µM)
- Ki [7, 12]: 200 nM
- Ki [8, 13]: 94 nM
- MIC, S.a. (Smith) [9]: 10 µg/mL (≈ 22.2 µM)
- MIC, E. fecium [10]: 15 µg/mL (≈ 33.3 µM)

Structure (SMILES): O=c1[nH]c(NCc2ccc(Cl)c(Cl)c2)cc2ncn(CCCCCN3CCOCC3)c12 [Compound 5, 2-(3,4-Dichlorobenzylamino)-6-oxo-7-(5-morpholinylpentyl)-3-deazapurine]
- MIC, B.s. [1]: 10 µg/mL (≈ 21.5 µM)
- MIC, MRSA (B42876) [3]: 20 µg/mL (≈ 43.1 µM)
- MIC, VRE [4]: 15 µg/mL (≈ 32.3 µM)
- MIC, S.a. [5]: 20 µg/mL (≈ 43.1 µM)
- MIC, E. fecalis [6]: 20 µg/mL (≈ 43.1 µM)
- Ki [7, 12]: 290 nM
- Ki [8, 13]: 100 nM
- MIC, S.a. (Smith) [9]: 20 µg/mL (≈ 43.1 µM)
- MIC, E. fecium [10]: 20 µg/mL (≈ 43.1 µM)

Structure (SMILES): CC(=O)OCCCCn1cnc2nc(NCc3ccc(Cl)c(Cl)c3)[nH]c(=O)c21 [Compound 7, 7-(4-Acetoxybutyl)-2-(3,4-dichlorobenzylamino)-6-oxopurine]
- MIC [1]: 5 µg/mL (≈ 11.8 µM)
- MIC [3]: 2.5 µg/mL (≈ 5.89 µM)
- MIC ([4]; Enterococcus, VRE): 5 µg/mL (≈ 11.8 µM)
- MIC [5]: 5 µg/mL (≈ 11.8 µM)
- MIC [6]: 2.5 µg/mL (≈ 5.89 µM)
- Ki [8, 13]: 66 nM
- MIC [9]: 2.5 µg/mL (≈ 5.89 µM)
- MIC [10]: 2.5 µg/mL (≈ 5.89 µM)

Structure (SMILES): O=c1[nH]c(NCc2ccc(Cl)c(Cl)c2)nc2ncn(CCCCO)c12 [Compound 8, 7-(4-Hydroxybutyl)-2-(3,4-dichlorobenzylamino)-6-oxopurine]
- MIC [1]: 15 µg/mL (≈ 39.2 µM)
- MIC [3]: 30 µg/mL (≈ 78.5 µM)
- MIC [6]: 10 µg/mL (≈ 26.2 µM)
- Ki [8, 13]: 190 nM
- MIC [9]: 25 µg/mL (≈ 65.4 µM)
- MIC [10]: 7.5 µg/mL (≈ 19.6 µM)

Structure (SMILES): O=c1[nH]c(NCc2ccc(Cl)c(Cl)c2)nc2ncn(CCCCN3CCOCC3)c12 [Compound 10, 7-[4-(N-Morpholinyl)butyl]-2-(3,4-dichlorobenzylamino)-6-oxopurine]
- MIC [5]: 20 µg/mL (≈ 44.3 µM)
- MIC [6]: 10 µg/mL (≈ 22.2 µM)
- Ki [8, 13]: 51 nM
- MIC [10]: 10 µg/mL (≈ 22.2 µM)
- Papp [11]: 0.01 ×10⁻⁶ cm/s

Structure (SMILES): CC(=O)OCCCCCn1cnc2nc(NCc3ccc(Cl)c(Cl)c3)[nH]c(=O)c21 [Compound 11, 7-(5-Acetoxypentyl)-2-(3,4-dichlorobenzylamino)-6-oxopurine]
- MIC [5]: 2.5 µg/mL (≈ 5.7 µM)
- MIC [6]: 1.25 µg/mL (≈ 2.85 µM)
- Ki [8, 13]: 52 nM
- MIC [10]: 1.25 µg/mL (≈ 2.85 µM)

Structure (SMILES): O=c1[nH]c(NCc2ccc(Cl)c(Cl)c2)nc2ncn(CCCCCO)c12 [Compound 12, 7-(5-Hydroxypentyl)-2-(3,4-dichlorobenzylamino)-6-oxopurine]
- MIC [5]: 20 µg/mL (≈ 50.5 µM)
- MIC [6]: 5 µg/mL (≈ 12.6 µM)
- Ki [8, 13]: 52 nM
- MIC [10]: 10 µg/mL (≈ 25.2 µM)

Structure (SMILES): CCc1cc(Nc2cc3ncn(CCCCOC)c3c(=O)[nH]2)ccc1C [Compound 15, 2-(3-Ethyl-4-methylphenylamino)-6-oxo-7-(4-methoxybutyl)-3-deazapurine]
- MIC [1]: 2.5 µg/mL (≈ 7.05 µM)
- MIC [3]: 10 µg/mL (≈ 28.2 µM)
- MIC [6]: 10 µg/mL (≈ 28.2 µM)
- Ki, B.s. pol IIIE [7, 14]: inact
- Ki [8]: 1500 nM
- MIC [10]: 10 µg/mL (≈ 28.2 µM)

Structure (SMILES): CCc1cc(Nc2nc3ncn(CCCCO)c3c(=O)[nH]2)ccc1C [Compound 18, 7-(4-Hydroxybutyl)-2-(3-ethyl-4-methylphenylamino)-6-oxopurine]
- MIC [1]: 15 µg/mL (≈ 43.9 µM)
- MIC [3]: 30 µg/mL (≈ 87.9 µM)
- MIC [6]: 20 µg/mL (≈ 58.6 µM)
- Ki, B.s. pol IIIE [7, 14]: inact
- Ki [8, 13]: 470 nM
- MIC [9]: 40 µg/mL (≈ 117 µM)
- MIC [10]: 20 µg/mL (≈ 58.6 µM)
- Papp [11]: 0.56 ×10⁻⁶ cm/s

Structure (SMILES): CCc1cc(Nc2nc3ncn(CCCCCOC(C)=O)c3c(=O)[nH]2)ccc1C [Compound 19, 7-(5-Acetoxypentyl)-2-(3-ethyl-4-methylphenylamino)-6-oxopurine]
- Papp [11]: 0.58 ×10⁻⁶ cm/s

Structure (SMILES): CCc1cc(Nc2nc3ncn(CCCCCO)c3c(=O)[nH]2)ccc1C [Compound 20, 7-(5-Hydroxypentyl)-2-(3-ethyl-4-methylphenylamino)-6-oxopurine]
- MIC [3]: 20 µg/mL (≈ 56.3 µM)
- MIC [6]: 10 µg/mL (≈ 28.1 µM)
- Ki [8, 13]: 280 nM
- MIC [10]: 10 µg/mL (≈ 28.1 µM)
- Papp [11]: 0.62 ×10⁻⁶ cm/s

Structure (SMILES): CCc1cc(Nc2nc3ncn(CCCCCOC)c3c(=O)[nH]2)ccc1C [Compound 22, 7-(5-Methoxypentyl)-2-(3-ethyl-4-methylphenylamino)-6-oxopurine]
- MIC [1]: 1.25 µg/mL (≈ 3.38 µM)
- MIC [6]: 5 µg/mL (≈ 13.5 µM)
- Ki [7]: 394000 nM
- Ki [8]: 260 nM
- MIC [10]: 10 µg/mL (≈ 27.1 µM)

Structure (SMILES): CCc1cc(Nc2nc3ncn(CCCCCN4CCC(O)(c5ccc(Cl)c(C(F)(F)F)c5)CC4)c3c(=O)[nH]2)ccc1C [Compound 23, 7-{5-[4-hydroxy-4-(3-trifluoromethyl-4-chlorophenyl)piperidyl]pentyl}-2-(3-ethyl-4-methylphenylamino)-6-oxopurine]
- MIC, B.s. [1]: 2.5 µg/mL (≈ 4.05 µM)
- MIC, MRSA (B42876) [3]: 5 µg/mL (≈ 8.1 µM)
- MIC, VRE [4]: 5 µg/mL (≈ 8.1 µM)
- MIC, S.a. [5]: 5 µg/mL (≈ 8.1 µM)
- MIC, E. fecalis [6]: 5 µg/mL (≈ 8.1 µM)
- Ki [7, 12]: 38000 nM
- Ki [8, 13]: 130 nM
- MIC, S.a. (Smith) [9]: 5 µg/mL (≈ 8.1 µM)
- MIC, E. fecium [10]: 5 µg/mL (≈ 8.1 µM)

Structure (SMILES): CC(C)NCC(O)COc1cccc2ccccc12 (centres unmarked) [Propranolol, reference compound]
- Papp [11]: 19.3 ×10⁻⁶ cm/s

Structure (SMILES): CNC(=C[N+](=O)[O-])NCCSCc1ccc(CN(C)C)o1 [Ranitidine, reference compound]
- Papp [11]: 0.27 ×10⁻⁶ cm/s
